Paper PMC5845353, “The selective cathepsin K inhibitor MIV-711 attenuates joint pathology in experimental animal models of osteoarthritis” (Journal of Translational Medicine, 2018)

Tests used:
[1] = target: rabbit cathepsin K enzyme; set-up: method as in PMID 29743078; conditions: read-out: Ki against rabbit cathepsin K enzyme; cited from earlier work
[2] = test system: dogs subjected to partial medial meniscectomy; assay: Dog partial medial meniscectomy study, osteophyte measurement and grades; assay type: in vivo
Description: Osteophytes for each compartment were measured (basal endochondral ossification to surface of cartilage cap) and severity grades assigned according to the following: […]

[3] = test system: dogs subjected to partial medial meniscectomy; assay: Dog partial medial meniscectomy study, gross macroscopic scoring; assay type: in vivo; conditions: MIV-711 30 µmol/kg
From the text: The study design and animal usage were reviewed and approved by the IACUC at Preclinical Research Services (PCRS; Fort Collins, CO) for compliance with regulations before study initiation (IACUC Number 1021). Animal welfare, housing and research procedures for this study complied with the U.S. Department of Agriculture’s (USDA) Animal Welfare Act (9 CFR Parts 1, 2, and 3), the Guide for the Care and Use of Laboratory Animals, and PCRS Standard of Procedures. Thirty adult naïve female beagle dogs, with a weight of 7.5–11.3 kg and an age of approximately 6–8 months at study initiation, were used for this study. The dogs were acclimated for at least 7 days before study initiation.
At least 12 h before surgery, a fentanyl transdermal 2.5 mg patch was placed on the skin on the ventral aspect of the tail of each dog and secured into place with tape. The fentanyl patch delivered approximately 25 μg/h of analgesia for a total duration of 72–80 h. Dogs were also pre-medicated before surgery with glycopyrrolate (0.005–0.02 mg/kg), acepromazine (0.01–0.05 mg/kg) and morphine (0.5–1.0 mg/kg) injected subcutaneously. General anesthesia was induced using propofol (2–6 mg/kg) given intravenously; each dog was then intubated and maintained on isoflurane in oxygen (0.5–5%) administered to effect. The hair over the surgical site was clipped, and a preliminary aseptic prep of the area was done by alternating scrubs of chlorhexidine surgical scrub and sterile dry gauze sponges. A local anesthetic line block of lidocaine and bupivacaine (1.5 mg each) diluted in saline was administered at the incision site to provide local pre-emptive anesthesia. The limb was draped with a sterile fenestrated surgical drape. A small 2 cm medial parapatellar skin incision and a subsartorius capsular approach were made to expose the meniscus. For removal of the anterior one-half of the medial meniscus, the cranial meniscotibial ligament was incised, and the capsular attachments to the cranial pole of the meniscus were separated sharply with a scalpel under direct vision, sparing injury to the articular cartilage or the ACL. The medial meniscus was reflected medially with a hemostat. […] Animals were monitored closely throughout the recovery and post-operative period. […]
All animals were humanely euthanized on Day 29 to collect specimens for pathology. […] At study termination, the left (operated) knee was opened, disarticulated and the lesions on the medial tibia and femur measured, described and photographed. […] Lesions were classified as more severe or less severe depending on the intensity of India ink staining or perception of depth and areas for each calculated. Gross cartilage lesions were measured (length × width) and described as superficial, moderate, or deep. […]

## C#C[C@@H]1CN(C(=O)[C@H](CC(C)C)NC(=O)c2ccc(-c3nc(N4CCN(C)CC4)sc3F)cc2)[C@@H]2C(=O)CO[C@H]12 [MIV-711]
[1]
  Ki: 3.3 nM
[2]; MIV-711 group mean
  Osteophyte Score: 0.00
[2]; individual dogs of MIV-711 group
  Osteophyte Measure: 0 µm
[2]; individual dogs of MIV-711 group, mean of 3 sections
  Osteophyte Score: 0.00
[3]; Femur condyle
  Macroscopic score, Calculated: 9.07 ± 4.78
  Macroscopic score, Subjective: 1.13 ± 0.32
[3]; Tibia plateau
  Macroscopic score, Calculated: 23.88 ± 3.17
  Macroscopic score, Subjective: 2.33 ± 0.21
